Experimental findings from ChEMBL document CHEMBL1201862, “PubChem BioAssay data set” (2004) are described below.

The term AC50 denotes the concentration giving half of the maximal activity seen. For orientation: CC50 means the concentration giving 50% cytotoxicity.

Calls of active or inactive are those of the source.

Experiment [1] can be described thus: cells. The class given is functional, cell-based.
Experiment [2] can be described thus: cells. It is filed as functional, cell-based. The source holds these as a separate data set.
The subject of the next experiment is INS1. Kind of experiment: beta cell apoptosis inhibitors, cytokine rescue, dose response, luminescence, retest (AID 449756).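 Further: cell death triggered by IL-1 beta plus TNF-alpha plus IFN-gamma mixture; protective hits raise ATP signal compared with cytokine alone wells.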 The class given is functional, cell-based. Conditions: Rattus norvegicus.
For experiment [3], the target named is T1, Zinc finger protein mex-5 (Caenorhabditis elegans, UniProt Q9XUB2).
T1 sequence (Q9XUB2 whole entry): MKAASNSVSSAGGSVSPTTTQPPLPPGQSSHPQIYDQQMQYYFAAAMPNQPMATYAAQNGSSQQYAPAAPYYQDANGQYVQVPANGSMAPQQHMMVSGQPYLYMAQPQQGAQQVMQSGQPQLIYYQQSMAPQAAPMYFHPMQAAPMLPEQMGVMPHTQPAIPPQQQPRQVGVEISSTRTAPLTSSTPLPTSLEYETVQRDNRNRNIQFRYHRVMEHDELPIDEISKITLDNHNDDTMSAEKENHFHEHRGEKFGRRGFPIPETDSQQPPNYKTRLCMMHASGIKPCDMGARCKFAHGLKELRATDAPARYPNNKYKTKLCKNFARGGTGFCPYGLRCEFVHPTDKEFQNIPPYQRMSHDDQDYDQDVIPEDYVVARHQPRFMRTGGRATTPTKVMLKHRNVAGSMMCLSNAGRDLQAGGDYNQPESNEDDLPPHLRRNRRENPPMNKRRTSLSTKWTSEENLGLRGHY
The experiment is described as follows: MEX-5/TCR-2 RNA interaction inhibitors, dose response, biochemical, C. elegans, fluorescence polarization (AID 1960). (Fluorescence polarisation rises when a labelled molecule tumbles more slowly, as on binding a larger partner.)

In experiment [4] the target is T2, RNA-binding protein pos-1 (Caenorhabditis elegans, UniProt G5EF15).
T2 sequence (G5EF15 whole entry): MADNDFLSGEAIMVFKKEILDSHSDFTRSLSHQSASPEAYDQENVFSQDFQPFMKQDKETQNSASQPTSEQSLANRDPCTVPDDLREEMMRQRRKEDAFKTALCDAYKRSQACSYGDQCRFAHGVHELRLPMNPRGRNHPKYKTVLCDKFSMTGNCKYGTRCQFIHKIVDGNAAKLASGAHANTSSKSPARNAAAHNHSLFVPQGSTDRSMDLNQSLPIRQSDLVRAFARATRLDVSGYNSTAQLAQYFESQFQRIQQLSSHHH
The experiment is described as follows: inhibitors of POS-1/mex-3 RNA binding, dose response, biochemical, fluorescence polarization (AID 1964).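 Further: purified POS-1 fused to maltose binding protein made in E. coli; potency of compounds blocking POS-1 binding to fluorescent RNA.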

Experiment [5] addresses T3, Corticotropin-releasing factor receptor 2/Corticotropin-releasing factor-binding protein (Homo sapiens, UniProt P24387+Q13324).
T3 sequence (Q13324 whole entry): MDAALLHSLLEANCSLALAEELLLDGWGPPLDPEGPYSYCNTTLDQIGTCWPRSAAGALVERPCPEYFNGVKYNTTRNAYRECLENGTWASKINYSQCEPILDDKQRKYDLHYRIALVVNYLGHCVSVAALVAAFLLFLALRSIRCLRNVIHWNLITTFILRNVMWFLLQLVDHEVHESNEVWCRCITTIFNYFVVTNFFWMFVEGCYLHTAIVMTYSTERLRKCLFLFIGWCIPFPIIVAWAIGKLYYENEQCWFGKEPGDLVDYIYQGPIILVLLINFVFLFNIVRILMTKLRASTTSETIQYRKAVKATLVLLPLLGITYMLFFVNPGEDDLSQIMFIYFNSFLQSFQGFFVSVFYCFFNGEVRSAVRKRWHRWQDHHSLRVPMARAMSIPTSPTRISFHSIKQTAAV
T3 sequence (P24387 whole entry): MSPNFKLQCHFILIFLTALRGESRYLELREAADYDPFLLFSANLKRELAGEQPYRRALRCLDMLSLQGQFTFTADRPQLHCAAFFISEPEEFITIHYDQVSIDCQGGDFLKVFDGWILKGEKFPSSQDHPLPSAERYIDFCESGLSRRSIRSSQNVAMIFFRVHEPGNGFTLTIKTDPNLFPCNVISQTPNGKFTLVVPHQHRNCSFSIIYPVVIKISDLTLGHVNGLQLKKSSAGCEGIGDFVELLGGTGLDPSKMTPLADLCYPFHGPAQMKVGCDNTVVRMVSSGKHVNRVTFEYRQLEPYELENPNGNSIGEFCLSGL
The experiment is described as follows: Dose Response confirmation of uHTS hits for small molecule antagonists of the CRF-binding protein and CRF-R2 receptor complex. The class given is functional. The following applies: read-out: IC50_Mean.

Experiment [6] addresses T3, Corticotropin-releasing factor receptor 2/Corticotropin-releasing factor-binding protein. Kind of experiment: activators of CRF receptor 2 with binding protein – uHTS hits, confirmation (AID 602473). The class given is functional. Conditions: read-out: EC50_Mean.
Experiment [7] in a line: Luminescence Cell-Based Dose Confirmation HTS to Identify Activators of 5'UTR Stem-Loop Driven Alpha-Synuclein mRNA Translation in H4 Neuroglioblastoma Cells. [Related pubchem assays: 1829 (Project Summary), 1814 (Primary HTS)]. The class given is functional.
A further experiment has as its system H4. The experiment is described as follows: Luminescence Cell-Based Dose Response HTS to Identify Activators of 5'UTR Stem-Loop Driven Prion Protein mRNA Translation in H4 Neuroglioblastoma Cells. [Related pubchem assays: 1829 (Project Summary), 1814 (Primary HTS)]. The class given is functional. The following applies: Homo sapiens.
Experiment [8] in a line: Luminescence Cell-Based Dose Response HTS to Identify Activators of Luciferase Translation or Activity in H4 […] Cells. [Related pubchem assays: 1829 (Project Summary), 1814 (Primary HTS)]. It is filed as functional.
Experiment [9] is described as follows: HEp-2 cell cytotoxicity, dose response, cytotoxicity control for RSV inhibitor project, HTS (AID 2410). The class given is functional. The following applies: human respiratory syncytial virus.
The target in the next experiment is Cytochrome P450 3A4 (Homo sapiens, UniProt P08684).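 Further: CYP3A4 tested as one member of a cytochrome P450 panel screen.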
Sequence of Cytochrome P450 3A4 (P08684 whole entry): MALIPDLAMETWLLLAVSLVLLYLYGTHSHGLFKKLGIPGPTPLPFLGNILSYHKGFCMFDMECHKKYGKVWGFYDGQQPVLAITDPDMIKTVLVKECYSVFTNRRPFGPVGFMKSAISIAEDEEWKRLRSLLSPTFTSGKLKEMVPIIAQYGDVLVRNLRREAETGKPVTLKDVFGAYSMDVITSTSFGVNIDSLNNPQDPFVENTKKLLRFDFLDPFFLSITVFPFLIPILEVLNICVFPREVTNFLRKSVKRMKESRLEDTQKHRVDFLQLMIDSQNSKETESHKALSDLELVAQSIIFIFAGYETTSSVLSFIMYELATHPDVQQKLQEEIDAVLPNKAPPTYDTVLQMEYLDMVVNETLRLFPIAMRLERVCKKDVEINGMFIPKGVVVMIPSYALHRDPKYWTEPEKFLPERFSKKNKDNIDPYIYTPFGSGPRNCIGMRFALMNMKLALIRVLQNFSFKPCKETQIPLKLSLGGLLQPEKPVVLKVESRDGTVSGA
For another experiment, the target named is Cytochrome P450 2C19 (Homo sapiens, UniProt P33261). The experiment is described as follows: Cytochrome panel assay with activity outcomes. Panel member name: p450-cyp2c19 Compounds with AC50 equal or less than 10 uM are considered active. It is filed as functional. Conditions: read-out: AC50.
Sequence of Cytochrome P450 2C19 (P33261 whole entry): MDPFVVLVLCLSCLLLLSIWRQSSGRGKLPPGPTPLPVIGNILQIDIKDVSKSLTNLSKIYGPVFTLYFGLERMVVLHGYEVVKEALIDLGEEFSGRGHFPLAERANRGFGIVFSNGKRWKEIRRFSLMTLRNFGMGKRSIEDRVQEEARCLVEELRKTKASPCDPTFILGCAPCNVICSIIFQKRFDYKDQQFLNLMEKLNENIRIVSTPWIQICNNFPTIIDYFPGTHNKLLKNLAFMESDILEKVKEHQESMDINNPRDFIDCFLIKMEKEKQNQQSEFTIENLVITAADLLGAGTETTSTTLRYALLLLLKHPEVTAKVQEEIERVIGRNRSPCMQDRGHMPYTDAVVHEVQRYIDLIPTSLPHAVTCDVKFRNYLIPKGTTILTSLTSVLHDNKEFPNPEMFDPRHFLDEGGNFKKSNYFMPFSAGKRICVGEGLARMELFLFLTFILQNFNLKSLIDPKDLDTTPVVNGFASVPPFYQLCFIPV
The nature of experiment [10]: growth suppression of PTEN-null colon cells, dose response, cell-based, HCT116 PTEN knockout (AID 1047).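 Further: HCT116 colon tumor cells with PTEN knocked out; cells exposed to compound for 60 hours before readout; potency for loss of cell viability measured by luminescence.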 The class given is functional.

For `O=C(O)c1ccccc1OCCOc1ccccc1C(=O)O`, the EC50 in “cells [1]” and in “cells [2]” was > 350 µM (not active) in each case.

For `O=[N+]([O-])c1cccc(-c2cn3nc(-c4ccccc4)c(-c4ccccc4)nc3n2)c1`, the concentration at half-maximal activity (AC50) with INS1 was 11 µM (active). Also, the EC50 in experiment [3] was 99 µM (active); in experiment [4], > 300 µM (not active).

In the case of `Cc1ccc(N(C(=O)Cn2nnc(-c3ccccc3F)n2)C(C(=O)NC2CCCC2)c2ccncc2)cc1` (stereo not given), the IC50 in experiment [5] was > 47.1 µM (inactive). Besides, the EC50 in experiment [6] is > 53 µM (inactive).

For `O=Nc1c(-c2ccccc2)cc2ccccn12`, the results for the EC50 (in [7]; in the experiment with H4; in experiment [8]) were 13.6 µM (active), 27.4 µM (active) and 12.1 µM (active), respectively.

Consider `O=C(Nc1ccc(Cl)cn1)c1cccc(S(=O)(=O)N2CCCC2)c1`, for which, in [5], the IC50 was > 47.1 µM (inactive). For the same compound, the EC50 in [6] was > 53 µM (inactive).

As to `CCc1nn(CCCC(=O)N2CCN(c3cccc(C)c3C)CC2)c(=O)c2cc3occc3n12`, the CC50 in experiment [9] is 17 µM (active).

Regarding `O=C1NC(=O)N(CCNc2ncc(C(F)(F)F)cc2Cl)C(=O)C1/C=N/OCc1c(F)cccc1Cl` (stereo not given), the AC50 is 3.16 µM (inconclusive) at Cytochrome P450 3A4 and 8.91 µM (inconclusive) on Cytochrome P450 2C19. Moreover, in experiment [5], the IC50 is > 47.1 µM (inactive). Moreover, the EC50 in experiment [6] was > 53 µM (inactive).

`CC1CC(C)CN(S(=O)(=O)c2ccc3c(c2)oc(=O)n3CC(=O)NCCCOC(C)C)C1` (stereo not given): the EC50 in “cells [1]” and in “cells [2]” was > 350 µM (not active) each time.

Turning to `CC(C)(C)C(=O)N1CCN(c2nc3ccc(Cl)cc3s2)CC1`, the EC50 in [7] was 0.369 µM (active); with H4, 15.2 µM (active); in experiment [8], 0.244 µM (active).

For the compound `CN(Cc1cccc(Cl)c1)C(=O)C1CCC(=O)N(C2CC2)C1` (stereo not given), in experiment [5], the IC50 was > 47.1 µM (inactive). For the same compound, the EC50 in experiment [6] is > 53 µM (inactive).

Take `CC1(C)CC(=O)C2=C(C1)OC(N)=C(C#N)C2c1cc2c(cc1[N+](=O)[O-])OCO2` (stereo not given): the EC50 in [6] was 5.48 µM (active); in experiment [3], 14.3 µM (active); in experiment [4] it was 18 µM (active).

As for `CC(C)COc1ccc(CN=C(S)Nc2ccccc2)cc1Cl`, in [5], the IC50 was > 47.1 µM (inactive). In addition, the EC50 in [6] is > 53 µM (inactive).

As to `O=C(CCCc1ccccc1)Nc1ccccn1`, the EC50 in “cells [1]” and in the experiment “cells [2]” was > 350 µM (not active) in each case.

Consider `COc1ccc2sc(NC(=O)NC(=O)c3c(Cl)cccc3Cl)nc2c1`, for which the CC50 in experiment [9] is 17.3 µM (active).

With `Cc1ccc(-n2nnnc2SCC(=O)Nc2sc(C)c(C)c2C#N)cc1C`, the EC50 was 15.9 µM (active) in [7], > 120 µM (not active) in the experiment with H4 and 15.6 µM (active) in experiment [8].

With `COc1cc(CNc2ccc(N3CCCC3)cc2)ccc1OCc1ccccc1`, the CC50 in experiment [9] was 13 µM (active).

As for `CCN(CC(=O)Nc1c(F)cccc1F)C(=O)c1ccc(S(=O)(=O)N2CCC(C)CC2)cc1`, the IC50 in experiment [5] was > 47.1 µM (inactive). The EC50 in experiment [6] is > 53 µM (inactive).

Turning to `Cn1c(SCC(=O)Nc2ccccc2)nnc1-c1ccc(NC(=O)CCc2ccccc2)cc1`, the EC50 in “cells [1]” and in “cells [2]” was > 350 µM (not active) each time.

As for `O=C(C[n+]1cc(-c2ccc(F)cc2)n2c1CCC2)N1c2ccccc2Sc2ccccc21`, the values for the EC50 (in experiment [7]; in the experiment on H4; in experiment [8]) were 7.4 µM (active), 9.69 µM (active) and 1.06 µM (active), respectively.

As to `O=C(CSCC(=O)N1CCCCC1)Nc1nc(-c2ccc(Cl)s2)cs1`, the EC50 in experiment [7] was 29.7 µM (active); in the experiment with H4 it was 10.9 µM (active); in experiment [8], 8.35 µM (active).

With `CCN(CC)S(=O)(=O)c1ccc2c(c1)N(CC(=O)NCc1ccco1)C(=O)CO2`, in experiment [5], the IC50 is > 47.1 µM (inactive). Also, the EC50 in experiment [6] was > 53 µM (inactive).

Take `Nc1ccnn1-c1ccccc1`: the EC50 in the experiment “cells [1]” and in the experiment “cells [2]” was > 350 µM (not active) in each case.

Regarding `COc1ccc(C(=O)Nc2ccc3nc4n(c(=O)c3c2)CCCCC4)cc1OC`, the IC50 in experiment [5] is > 47.1 µM (inactive). The EC50 in [6] was > 53 µM (inactive).

Regarding `Cc1cccc(-n2c(N)cc(=O)[nH]c2=S)c1`, the EC50 (in experiment [7]; with H4; in experiment [8]) was > 120 µM (not active) each time.

For the compound `Cc1cccn2c(=O)c(C=O)c(Nc3ccc(S(N)(=O)=O)cc3)nc12`, the results for the EC50 (in experiment [7]; in the experiment with H4; in experiment [8]) were 14.8 µM (active), > 120 µM (not active) and 26.4 µM (active), respectively.

On to `Cc1cc(NC(=O)C(C)C)ncc1NC(=O)CCc1ccccc1`, for which the EC50 in [6] is > 53 µM (inactive).

Turning to `Cc1ccc(C(=O)NCc2cccnc2)o1`, the IC50 in [5] was > 47.1 µM (inactive). Further, the EC50 in [6] was > 53 µM (inactive).

Take `CN(C)c1nn(C(=O)Nc2cccc(C(F)(F)F)c2)cc1-c1ccccc1`: in experiment [10], the EC50 is 42.1 µM (active).

With `NC(=O)NC1CCCc2c1[nH]c1ccc(Cl)cc21` (stereo not given), the CC50 in experiment [9] was 18 µM (active).

For `O=S(=O)(NC(=S)NC1CCCCC1)c1ccc(Br)cc1`, the IC50 in [5] was > 47.1 µM (inactive). The EC50 in experiment [6] is > 53 µM (inactive).

`O=C(CCN1CCCCC1)c1ccc2c(c1)OCO2`: in [5], the IC50 was > 47.1 µM (inactive). Also, the EC50 in [6] was > 53 µM (inactive).

In the case of `Cn1c2ccccc2c2ncn(CCC3=CCCCC3)c(=O)c21`, the values for the EC50 (in experiment [7]; with H4; in [8]) were 24 µM (active), 29.8 µM (active) and 21.7 µM (active), respectively.

As for `Clc1ccc(-c2nnc(NCc3ccccc3)c3ccccc23)cc1`, in [5], the IC50 is > 47.1 µM (inactive). In addition, the EC50 in experiment [6] is > 53 µM (inactive).

Regarding `O=C(N[C@@H](Cc1ccccc1)C(=O)OCc1ccccc1)c1[nH]cnc1C(=O)N1CCc2ccccc2C1`, the CC50 in [9] is 26.1 µM (active).

As for `COC(=O)CNC(=O)CSc1nnc2cc(C)c3ccccc3n12`, the EC50 in the experiment “cells [1]” and in “cells [2]” was > 350 µM (not active) each time.

For the compound `O=C(Nc1ccc(Cl)cc1)NN1CC(=O)N(c2cccc(C(F)(F)F)c2)CC1=O`, the EC50 in the experiment “cells [1]” and in the experiment “cells [2]” was > 350 µM (not active) in each case.

For the compound `O=C(O)C1CCN(C(=O)OCc2ccccc2)CC1`, the EC50 in [7] is 0.602 µM (active); in the experiment on H4, 6.56 µM (active); in [8], 87.1 µM (active).
